From patent US20140088085A1, “Substituted Benzoazepines As Toll-Like Receptor Modulators” (ARRAY BIOPHARMA, INC, priority 2011, published 2014)
Read-outs that look alike come from different tables or passages of the source.

Tests used:
[1] = target: T1, hTLR8 (Homo sapiens, UniProt Q9NR97); test: HEK-293 hTLR8 transfectant NF-κB SEAP reporter antagonist assay; assay type: cell-based
T1 construct: host or cells: HEK293 cells stably transfected with hTLR8
T1 sequence (Q9NR97 27-1041): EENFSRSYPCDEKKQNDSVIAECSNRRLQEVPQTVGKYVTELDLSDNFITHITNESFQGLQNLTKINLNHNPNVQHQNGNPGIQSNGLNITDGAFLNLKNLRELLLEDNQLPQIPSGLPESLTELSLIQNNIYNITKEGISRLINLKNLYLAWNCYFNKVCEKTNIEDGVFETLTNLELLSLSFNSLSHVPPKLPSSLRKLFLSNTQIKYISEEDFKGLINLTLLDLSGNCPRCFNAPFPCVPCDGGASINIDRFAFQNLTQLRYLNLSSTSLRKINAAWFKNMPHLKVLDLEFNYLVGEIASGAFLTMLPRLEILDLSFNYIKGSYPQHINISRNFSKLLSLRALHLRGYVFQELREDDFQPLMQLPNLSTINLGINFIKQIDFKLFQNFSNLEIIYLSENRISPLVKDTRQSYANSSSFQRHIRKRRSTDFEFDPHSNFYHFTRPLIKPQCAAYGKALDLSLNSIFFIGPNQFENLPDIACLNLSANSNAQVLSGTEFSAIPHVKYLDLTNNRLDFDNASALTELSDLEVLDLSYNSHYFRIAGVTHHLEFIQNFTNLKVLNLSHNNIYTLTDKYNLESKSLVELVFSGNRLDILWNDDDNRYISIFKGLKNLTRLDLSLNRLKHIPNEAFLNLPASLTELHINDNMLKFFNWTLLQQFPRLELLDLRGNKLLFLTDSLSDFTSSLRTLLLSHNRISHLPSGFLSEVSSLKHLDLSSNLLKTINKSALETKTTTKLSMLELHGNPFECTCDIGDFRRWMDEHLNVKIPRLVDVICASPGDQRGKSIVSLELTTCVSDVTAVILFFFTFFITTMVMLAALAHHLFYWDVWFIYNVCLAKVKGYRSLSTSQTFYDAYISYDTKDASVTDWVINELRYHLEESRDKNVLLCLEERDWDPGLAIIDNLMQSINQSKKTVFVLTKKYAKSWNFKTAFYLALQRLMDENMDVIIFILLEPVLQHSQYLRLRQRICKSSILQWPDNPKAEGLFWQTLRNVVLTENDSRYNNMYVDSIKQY
Procedure: The HEK-293 hTLR transfectant assay employs HEK293 cells stably transfected with various hTLRs and transiently co-transfected with a plasmid containing an NF-κB driven secreted embryonic alkaline phosphate (SEAP) reporter gene. Stimulation of TLRs activates their downstream signaling pathways and induces nuclear translocation of the transcription factor NF-κB. Reporter gene activity is then measured using a spectrophotometric assay.
For the TLR8 antagonist assays, cells are transiently transfected with the reporter gene on Day 1 per the supplier's instructions. Antagonist compounds are added to the cultures on Day 2 followed by addition of a TLR8 agonist approximately 2 hours later. Cultures are incubated overnight and SEAP activity is measured on Day 3.
In a typical assay, 50,000 HEK239 hTLR8 cells are seeded per culture well and transiently transfected with the SEAP reporter gene. Antagonists are added to cultures in culture medium and […] DMSO over a concentration range of 0.1 nanomolar to 10 micromolar. TLR8 agonists are added to cultures 2 hours later at a fixed concentration (e.g., 1 micromolar or 10 micromolar of Compound A) and cultures are then incubated for 16-24 hrs at 37° C. in a humidified CO incubator. Antagonists are also evaluated for activity in the absence of agonist.
TLR8 antagonist activity at 25 μM is presented in Table 2, where + denotes a % inhibition of 20-39, ++ denotes a % inhibition of 40-59, +++ denotes a % inhibition of 60-79 and ++++ denotes a % inhibition of 80-99. In some cases, antagonist activity was assessed at lower concentrations, for example, at 8.3, 2.8, or less than 1 μM.
TLR8 antagonist activity was measured in a hTLR8 assay format, measuring IC50 values. Compounds were incubated with hTLR8 reporter cells for two hours, then 1 μM Compound A was added to induce TLR8 overnight. IC50 were then calculated.

[2] = tested on: human peripheral blood mononuclear cells (PBMCs); test: Human PBMC assay: IL-8 production stimulated with CL075 (ELISA); assay type: cell-based; settings: 3 to 1000 nM antagonist 2 h, then CL075 100 ng/mL (400 nM) overnight, FIG. 1, one donor
Procedure: PBMCs contain a mixture of cells including monocytes and myeloid dendritic cells (mDCs) that express TLR8. […] The ability of TLR8 antagonists to inhibit […] production in human PBMCs was evaluated. […] Data shown in FIG. 1 are a representative experiment from one donor evaluated in duplicate culture wells. Increasing concentrations (from 3 to 1000 nM) of Compounds 3348, 2987, 3261, 3387, and 3448 (labeled as VTX-3348, VTX-2987, VTX-3261, VTX-3387, VTX-3448 in FIG. 1) were added to human PBMCs (50,000 cells/well in RPMI) and incubated for 2 hours in a 37° C. humidified CO2 incubator. […] At the end of the incubation, cells were centrifuged and cell culture supernatants were analyzed for IL-8 by ELISA (eBiosciene kit) per the manufacturer's instructions. The absorbance (OD 450 nm) representative of IL-8 levels is shown on the y-axis of FIG. 1.
The experiment shown in FIG. 1 was repeated in multiple donors and with additional TLR8 antagonist molecules (see FIG. 2). […] Percent inhibition is shown on the y-axis and concentrations of TLR8 antagonists (3-1000 nM) are shown on the x-axis in FIG. 2.

[3] = IC50, nM, vs. VTX-378 1 μM, agonist VTX-378 at 1 μM

IC50 ([1]; IC50, nM, vs. 3M002 10 μM, agonist 3M002 at 10 μM)	IC50 [1, 3]	IC50 ([1]; agonist VTX-378 at 0.5 μM, read-out: IC50, nM, vs. VTX-378 0.5 μM)	IC50 ([1]; IC50, nM, vs. VTX-378 10 μM, agonist VTX-378 at 10 μM)	Structure (SMILES)	inhibition of IL-8 production [2]
< 1000 nM	< 1000 nM	< 1000 nM		CCOC(=O)C1=Cc2cc(-c3ccc(C(=O)N4CCCC4)cc3)ccc2N=C(N)C1(C)C [Compound 3348]	reduced in a dose dependent fashion
	< 1000 nM		1000 to 10000 nM	CCCN(CCC)C(=O)C1=Cc2cc(-c3ccc(C(=O)N4CCCC4)cc3)ccc2N=C(N)C1 [Compound 2987]	reduced in a dose dependent fashion
